This passage reports IC50 results from US8729082B2, “Substituted imidazoquinoxalines” (Bayer Intellectual Property GmbH, priority 2009, dated 2014).

As a reminder, the IC50 is the concentration that inhibits the measured activity by half.

The test concerns the target T1, human kinase Mps-1 (Homo sapiens, UniProt P33981).
T1 construct: N-terminally GST-tagged human full length recombinant Mps-1 kinase; purchased Invitrogen, Karslruhe, Germany PV4071
T1 sequence (P33981 1-857): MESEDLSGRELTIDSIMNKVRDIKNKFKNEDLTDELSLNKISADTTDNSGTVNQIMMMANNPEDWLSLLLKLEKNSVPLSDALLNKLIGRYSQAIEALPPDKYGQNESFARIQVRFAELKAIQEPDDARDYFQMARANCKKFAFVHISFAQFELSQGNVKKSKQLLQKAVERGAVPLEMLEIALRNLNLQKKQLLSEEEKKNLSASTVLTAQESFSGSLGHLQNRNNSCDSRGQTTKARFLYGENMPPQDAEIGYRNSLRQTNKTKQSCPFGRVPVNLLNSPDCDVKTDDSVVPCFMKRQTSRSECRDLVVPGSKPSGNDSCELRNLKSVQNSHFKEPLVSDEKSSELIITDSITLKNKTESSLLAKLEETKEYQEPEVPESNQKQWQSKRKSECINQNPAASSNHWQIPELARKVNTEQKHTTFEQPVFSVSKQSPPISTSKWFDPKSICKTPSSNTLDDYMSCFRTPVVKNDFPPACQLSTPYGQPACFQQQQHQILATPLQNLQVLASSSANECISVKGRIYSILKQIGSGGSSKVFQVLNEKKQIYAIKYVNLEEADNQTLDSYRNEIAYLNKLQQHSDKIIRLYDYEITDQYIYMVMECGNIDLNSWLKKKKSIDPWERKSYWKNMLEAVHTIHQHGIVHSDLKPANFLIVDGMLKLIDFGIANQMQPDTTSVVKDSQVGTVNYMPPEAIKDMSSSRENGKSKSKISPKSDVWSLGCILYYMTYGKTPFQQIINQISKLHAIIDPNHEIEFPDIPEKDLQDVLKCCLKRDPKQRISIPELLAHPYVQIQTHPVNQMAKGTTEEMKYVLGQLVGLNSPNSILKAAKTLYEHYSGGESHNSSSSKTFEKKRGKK
As to the kind of experiment: Mps-1 kinase assay (HTRF). It counts as biochemical. To be noted: lowATP; mean; read-out: Mps1 lowATP mean IC50. A digest of the protocol: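 HTRF readout: EDTA-stopped reactions incubated 1 h with europium anti-phospho(Ser/Thr) antibody and streptavidin-XLent, emission ratio 665/620 nm after 350 nm excitation. Kinase step: compound pre-bound 15 min to ~1 nM GST-Mps-1, then 60 min at 22 °C with ATP and biotin-peptide substrate; inhibition scaled between no-inhibitor (0%) and no-enzyme (100%) controls.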
A general note: Time-resolved FRET reads energy transfer from a long-lived donor to a nearby acceptor.
`N#Cc1ccc2c(c1)nc(NCCC(N)=O)c1ncc(-c3ccc(C(=O)NC4CC4)cc3)n12` [Example 2-217, 4-{4-[(3-amino-3-oxopropyl)amino]-7-cyanoimidazo[1,2-a]quinoxalin-1-yl}-N-cyclopropylbenzamide]: the IC50 was 140 nM.

For `COCCCNc1nc2cc(C#N)ccc2n2c(-c3ccc(C(=O)NC4CC4)cc3)cnc12` [Example 2-218, 4-{7-cyano-4-[(3-methoxypropyl)amino]imidazo[1,2-a]quinoxalin-1-yl}-N-cyclopropylbenzamide], the IC50 came to 50.7 nM.

Consider `Cn1ccc(CNc2nc3cc(C#N)ccc3n3c(-c4ccc(C(=O)NC5CC5)cc4)cnc23)n1` [Example 2-219, 4-(7-cyano-4-{[(1-methyl-1H-pyrazol-3-yl)methyl]amino}imidazo[1,2-a]quinoxalin-1-yl)-N-cyclopropylbenzamide], for which the concentration for half-maximal inhibition (IC50) amounted to 59.6 nM.

Turning to `Cn1nccc1CNc1nc2cc(C#N)ccc2n2c(-c3ccc(C(=O)NC4CC4)cc3)cnc12` [Example 2-220, 4-(7-cyano-4-{[(1-methyl-1H-pyrazol-5-yl)methyl]amino}imidazo[1,2-a]quinoxalin-1-yl)-N-cyclopropylbenzamide], the half-inhibitory concentration (IC50) was 15.6 nM.

For `Cn1cc(CNc2nc3cc(C#N)ccc3n3c(-c4ccc(C(=O)NC5CC5)cc4)cnc23)cn1` [Example 2-221, 4-(7-cyano-4-{[(1-methyl-1H-pyrazol-4-yl)methyl]amino}imidazo[1,2-a]quinoxalin-1-yl)-N-cyclopropylbenzamide], the IC50 is 67.1 nM.

Consider `N#Cc1ccc2c(c1)nc(NCC(O)CO)c1ncc(-c3ccc(C(=O)NC4CC4)cc3)n12` (stereo not shown) [Example 2-222, 4-{7-cyano-4-[(2,3-dihydroxypropyl)amino]imidazo[1,2-a]quinoxalin-1-yl}-N-cyclopropylbenzamide], for which the IC50 was found to be 127 nM.

As to `CNC(=O)Nc1ccc(-c2cnc3c(NCCO)nc4cc(C#N)ccc4n23)cc1` [Example 2-223, 1-(4-{7-cyano-4-[(2-hydroxyethyl)amino]imidazo[1,2-a]quinoxalin-1-yl}phenyl)-3-methylurea], the IC50 was 4320 nM.

In the case of `CNC(=O)Nc1ccc(-c2cnc3c(NCCC(C)C)nc4cc(C#N)ccc4n23)cc1` [Example 2-224, 1-(4-{7-cyano-4-[(3-methylbutyl)amino]imidazo[1,2-a]quinoxalin-1-yl}phenyl)-3-methylurea], the half-maximal inhibitory concentration (IC50) came out at 3290 nM.

In the case of `CNC(=O)Nc1ccc(-c2cnc3c(NCCCN4CCCC4=O)nc4cc(C#N)ccc4n23)cc1` [Example 2-225, 1-[4-(7-cyano-4-{[3-(2-oxopyrrolidin-1-yl)propyl]amino}imidazo[1,2-a]quinoxalin-1-yl)phenyl]-3-methylurea], the IC50 was 8110 nM.

On to `CNC(=O)Nc1ccc(-c2cnc3c(NCc4cccs4)nc4cc(C#N)ccc4n23)cc1` [Example 2-226, 1-(4-{7-cyano-4-[(thiophen-2-ylmethyl)amino]imidazo[1,2-a]quinoxalin-1-yl}phenyl)-3-methylurea], for which the IC50 stood at 2820 nM.

As for `CNC(=O)Nc1ccc(-c2cnc3c(NCCCO)nc4cc(C#N)ccc4n23)cc1` [Example 2-227, 1-(4-{7-cyano-4-[(3-hydroxypropyl)amino]imidazo[1,2-a]quinoxalin-1-yl}phenyl)-3-methylurea], the IC50 stood at 3470 nM.

Turning to `CNC(=O)Nc1ccc(-c2cnc3c(NCCNC(C)=O)nc4cc(C#N)ccc4n23)cc1` [Example 2-228, N-{2-[(7-cyano-1-{4-[(methylcarbamoyl)amino]phenyl}imidazo[1,2-a]quinoxalin-4-yl)amino]ethyl}acetamide], the IC50 was 9780 nM.

As to `CNC(=O)Nc1ccc(-c2cnc3c(NCCCn4ccnc4)nc4cc(C#N)ccc4n23)cc1` [Example 2-229, 1-[4-(7-cyano-4-{[3-(1H-imidazol-1-yl)propyl]amino}imidazo[1,2-a]quinoxalin-1-yl)phenyl]-3-methylurea], the IC50 was 4990 nM.

For the compound `CNC(=O)Nc1ccc(-c2cnc3c(NCc4cccnc4)nc4cc(C#N)ccc4n23)cc1` [Example 2-230, 1-(4-{7-cyano-4-[(pyridin-3-ylmethyl)amino]imidazo[1,2-a]quinoxalin-1-yl}phenyl)-3-methylurea], the IC50 is 1410 nM.

With `CNC(=O)Nc1ccc(-c2cnc3c(NCc4ccco4)nc4cc(C#N)ccc4n23)cc1` [Example 2-231, 1-(4-{7-cyano-4-[(furan-2-ylmethyl)amino]imidazo[1,2-a]quinoxalin-1-yl}phenyl)-3-methylurea], the IC50 is 5210 nM.

For the compound `CNC(=O)Nc1ccc(-c2cnc3c(NCc4ccnn4C)nc4cc(C#N)ccc4n23)cc1` [Example 2-232, 1-[4-(7-cyano-4-{[(1-methyl-1H-pyrazol-5-yl)methyl]amino}imidazo[1,2-a]quinoxalin-1-yl)phenyl]-3-methylurea], the IC50 was 1140 nM.

Regarding `CNC(=O)Nc1ccc(-c2cnc3c(NCC(O)CO)nc4cc(C#N)ccc4n23)cc1` (stereo not shown) [Example 2-233, 1-(4-{7-cyano-4-[(2,3-dihydroxypropyl)amino]imidazo[1,2-a]quinoxalin-1-yl}phenyl)-3-methylurea], the IC50 came to 17800 nM.

In the case of `CCCNc1nc2cc(C#N)ccc2n2c(-c3ccc(C(=O)NC4CC4)c(Cl)c3)cnc12` [Example 2-234, 2-chloro-4-[7-cyano-4-(propylamino)imidazo[1,2-a]quinoxalin-1-yl]-N-cyclopropylbenzamide], the IC50 amounted to 810 nM.

Consider `N#Cc1ccc2c(c1)nc(NCCO)c1ncc(-c3ccc(C(=O)NC4CC4)c(Cl)c3)n12` [Example 2-235, 2-chloro-4-{7-cyano-4-[(2-hydroxyethyl)amino]imidazo[1,2-a]quinoxalin-1-yl}-N-cyclopropylbenzamide], for which the IC50 was 3450 nM.

Turning to `N#Cc1ccc2c(c1)nc(NCCCN1CCOCC1)c1ncc(-c3ccc(C(=O)NC4CC4)c(Cl)c3)n12` [Example 2-236, 2-chloro-4-(7-cyano-4-{[3-(morpholin-4-yl)propyl]amino}imidazo[1,2-a]quinoxalin-1-yl)-N-cyclopropylbenzamide], the IC50 is 15000 nM.

On to `CC(C)CCNc1nc2cc(C#N)ccc2n2c(-c3ccc(C(=O)NC4CC4)c(Cl)c3)cnc12` [Example 2-237, 2-chloro-4-{7-cyano-4-[(3-methylbutyl)amino]imidazo[1,2-a]quinoxalin-1-yl}-N-cyclopropylbenzamide], for which the IC50 came to 600 nM.

Turning to `N#Cc1ccc2c(c1)nc(NCc1ccccc1F)c1ncc(-c3ccc(C(=O)NC4CC4)c(Cl)c3)n12` [Example 2-238, 2-chloro-4-{7-cyano-4-[(2-fluorobenzyl)amino]imidazo[1,2-a]quinoxalin-1-yl}-N-cyclopropylbenzamide], the IC50 came to 613 nM.

As for `N#Cc1ccc2c(c1)nc(NCCCCO)c1ncc(-c3ccc(C(=O)NC4CC4)c(Cl)c3)n12` [Example 2-239, 2-chloro-4-{7-cyano-4-[(4-hydroxybutyl)amino]imidazo[1,2-a]quinoxalin-1-yl}-N-cyclopropylbenzamide], the IC50 was found to be 1040 nM.

For the compound `N#Cc1ccc2c(c1)nc(NCc1ccccc1)c1ncc(-c3ccc(C(=O)NC4CC4)c(Cl)c3)n12` [Example 2-240, 4-[4-(benzylamino)-7-cyanoimidazo[1,2-a]quinoxalin-1-yl]-2-chloro-N-cyclopropylbenzamide], the IC50 is 889 nM.

For `N#Cc1ccc2c(c1)nc(NCc1cccs1)c1ncc(-c3ccc(C(=O)NC4CC4)c(Cl)c3)n12` [Example 2-241, 2-chloro-4-{7-cyano-4-[(thiophen-2-ylmethyl)amino]imidazo[1,2-a]quinoxalin-1-yl}-N-cyclopropylbenzamide], the 50% inhibitory concentration (IC50) stood at 546 nM.
